T1: ehDmc1 (Entamoeba histolytica, UniProt C4LTR6)
T1 construct: gene EHI_050430; 334 amino acid protein with N-terminal six-histidine tag
T1 sequence (C4LTR6 1-347): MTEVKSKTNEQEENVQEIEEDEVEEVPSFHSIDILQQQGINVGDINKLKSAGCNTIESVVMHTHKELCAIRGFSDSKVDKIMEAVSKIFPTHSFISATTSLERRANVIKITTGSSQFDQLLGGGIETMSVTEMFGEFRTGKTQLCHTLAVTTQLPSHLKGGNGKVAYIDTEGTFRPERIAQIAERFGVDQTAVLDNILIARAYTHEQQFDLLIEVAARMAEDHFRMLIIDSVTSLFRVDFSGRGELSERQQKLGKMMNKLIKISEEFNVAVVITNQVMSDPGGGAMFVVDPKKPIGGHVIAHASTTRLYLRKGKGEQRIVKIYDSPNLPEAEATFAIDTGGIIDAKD

B1: ehDmc1 (Entamoeba histolytica HM-1:IMSS) (protein)
chain: T1 sequence (C4LTR6 1-347)
notes: 334 amino acid protein with N-terminal six-histidine tag

What was measured:
ehDmc1 = biological target: T1, ehDmc1; assay: D-loop assay with purified protein (IC50); also ssDNA EMSA, nuclease protection and ATPase assays; assay type: biochemical
[1] = substrate: Nc1ncnc2c1ncn2[C@@H]1O[C@H](COP(=O)(O)OP(=O)(O)OP(=O)(O)O)[C@@H](O)[C@H]1O; assay: Michaelis-Menten ATP hydrolysis assay (TLC), purified protein; Km; assay type: biochemical, Entamoeba histolytica; settings: Mg2+

| Molecule | IC50 (ehDmc1) | Km [1] |
| --- | --- | --- |
| O=S(=O)(O)c1cc(N=C=S)ccc1C=Cc1ccc(N=C=S)cc1S(=O)(=O)O [DIDS, 4,4′-diisothiocyanostilbene-2,2′-disulfonic acid] | 4.5 ± 0.23 µM |  |
| B1 |  | 480 ± 50 µM |
